Here are results for 1 molecule from patent US20090105270A1, “Kinase inhibition and anticancer therapy” (priority 2007, published 2009).

The structures appear in SMILES notation.

One assay addresses HIPK2(h) (Homo sapiens, UniProt Q9H2X6). In words: Upstate kinase activity inhibition assay HIPK2(h). Particulars: 40 min, read-out: percentage of enzyme activity that remains.
Another assay concerns the target Fms(h) (Homo sapiens, UniProt P07333). In words: Upstate kinase activity inhibition assay Fms(h). Conditions: 40 min, read-out: percentage of enzyme activity that remains.
The target in a further assay is T1, Pim-2(h) (Homo sapiens, UniProt Q9P1W9).
T1 construct: purchased Upstate (KinaseProfiler service)
T1 sequence (Q9P1W9 whole entry): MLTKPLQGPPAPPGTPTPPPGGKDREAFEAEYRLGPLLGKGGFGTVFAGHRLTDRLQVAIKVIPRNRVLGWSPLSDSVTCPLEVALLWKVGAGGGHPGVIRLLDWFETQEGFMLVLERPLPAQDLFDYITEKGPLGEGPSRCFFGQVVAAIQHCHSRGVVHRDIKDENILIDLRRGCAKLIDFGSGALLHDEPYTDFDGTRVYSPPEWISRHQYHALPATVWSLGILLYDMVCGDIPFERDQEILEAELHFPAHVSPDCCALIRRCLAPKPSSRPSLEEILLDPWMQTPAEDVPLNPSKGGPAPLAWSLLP
In words: Upstate kinase activity inhibition assay Pim-2(h). The assay is classed as biochemical. Particulars: 40 min; read-out: percentage of enzyme activity that remains.

HIPK2(h), sequence (Q9H2X6 whole entry): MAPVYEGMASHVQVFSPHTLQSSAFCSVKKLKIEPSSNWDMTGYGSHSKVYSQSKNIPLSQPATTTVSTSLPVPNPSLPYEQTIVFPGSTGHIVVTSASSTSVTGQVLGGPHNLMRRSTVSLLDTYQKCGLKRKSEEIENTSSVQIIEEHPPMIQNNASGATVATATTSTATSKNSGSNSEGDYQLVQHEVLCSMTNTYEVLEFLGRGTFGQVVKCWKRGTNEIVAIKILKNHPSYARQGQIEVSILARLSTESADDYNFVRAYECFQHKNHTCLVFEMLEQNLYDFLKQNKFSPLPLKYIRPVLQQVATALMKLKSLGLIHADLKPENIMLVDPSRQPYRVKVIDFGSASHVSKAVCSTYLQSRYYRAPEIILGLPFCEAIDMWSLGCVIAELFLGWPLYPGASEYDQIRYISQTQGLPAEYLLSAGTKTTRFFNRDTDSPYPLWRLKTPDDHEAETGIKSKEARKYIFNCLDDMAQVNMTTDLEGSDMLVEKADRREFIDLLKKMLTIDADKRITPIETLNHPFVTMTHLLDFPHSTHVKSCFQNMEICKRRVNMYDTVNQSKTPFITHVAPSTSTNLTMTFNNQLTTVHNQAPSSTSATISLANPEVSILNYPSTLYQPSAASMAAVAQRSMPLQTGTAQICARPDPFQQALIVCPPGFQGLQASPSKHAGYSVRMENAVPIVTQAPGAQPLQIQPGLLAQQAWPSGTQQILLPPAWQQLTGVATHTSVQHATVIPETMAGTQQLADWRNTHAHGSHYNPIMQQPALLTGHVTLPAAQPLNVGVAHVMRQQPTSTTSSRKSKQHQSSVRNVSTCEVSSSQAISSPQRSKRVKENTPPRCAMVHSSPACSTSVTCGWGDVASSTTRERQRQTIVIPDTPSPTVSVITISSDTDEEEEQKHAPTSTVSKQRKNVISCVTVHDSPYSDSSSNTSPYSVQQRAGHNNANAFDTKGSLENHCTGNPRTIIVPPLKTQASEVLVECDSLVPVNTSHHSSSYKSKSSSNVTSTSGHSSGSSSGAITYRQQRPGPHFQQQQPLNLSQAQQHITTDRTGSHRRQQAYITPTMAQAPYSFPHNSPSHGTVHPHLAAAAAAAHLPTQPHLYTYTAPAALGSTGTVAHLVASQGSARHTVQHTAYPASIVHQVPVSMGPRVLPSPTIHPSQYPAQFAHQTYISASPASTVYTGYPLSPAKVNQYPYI
Fms(h), sequence (P07333 20-972): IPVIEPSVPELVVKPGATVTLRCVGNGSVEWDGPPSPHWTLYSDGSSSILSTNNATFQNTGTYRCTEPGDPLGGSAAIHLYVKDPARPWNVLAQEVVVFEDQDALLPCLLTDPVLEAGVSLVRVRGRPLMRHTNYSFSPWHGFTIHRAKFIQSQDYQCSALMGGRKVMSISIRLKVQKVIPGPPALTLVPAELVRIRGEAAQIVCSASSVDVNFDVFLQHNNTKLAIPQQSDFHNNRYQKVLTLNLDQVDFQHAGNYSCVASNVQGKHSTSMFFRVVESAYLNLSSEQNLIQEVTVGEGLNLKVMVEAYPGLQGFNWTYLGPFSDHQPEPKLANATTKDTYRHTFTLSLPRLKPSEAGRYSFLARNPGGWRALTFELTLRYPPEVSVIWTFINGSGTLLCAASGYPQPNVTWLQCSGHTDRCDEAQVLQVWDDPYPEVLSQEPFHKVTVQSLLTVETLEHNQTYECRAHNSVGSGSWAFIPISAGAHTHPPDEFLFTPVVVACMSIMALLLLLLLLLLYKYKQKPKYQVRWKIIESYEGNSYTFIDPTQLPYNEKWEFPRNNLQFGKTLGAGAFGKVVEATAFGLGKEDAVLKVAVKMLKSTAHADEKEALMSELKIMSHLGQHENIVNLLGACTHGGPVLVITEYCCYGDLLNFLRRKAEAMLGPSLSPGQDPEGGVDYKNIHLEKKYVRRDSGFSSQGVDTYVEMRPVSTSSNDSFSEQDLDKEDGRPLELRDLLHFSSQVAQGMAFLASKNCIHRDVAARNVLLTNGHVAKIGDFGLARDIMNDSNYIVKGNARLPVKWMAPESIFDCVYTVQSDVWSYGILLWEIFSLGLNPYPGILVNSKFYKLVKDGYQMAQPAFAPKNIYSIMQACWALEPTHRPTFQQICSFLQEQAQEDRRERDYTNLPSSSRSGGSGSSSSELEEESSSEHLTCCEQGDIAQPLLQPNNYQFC

Regarding `Cc1cc(Nc2cc(N3CCN(C)CC3)nc(Sc3ccc(NC(=O)C4CC4)cc3)n2)n[nH]1` [Compound E, Cyclopropane carboxylic acid {4-[4-(4-methyl-piperazin-1-yl)-6-(5-methyl-2H-pyrazol-3-ylamino)-pyrimidin-2-ylsulphanyl]-phenyl}-amide], the values for the remaining activity at 0.2 µM on HIPK2(h), at Fms(h) and on Pim-2(h) were 107%, 139% and 110%, respectively. Besides, the remaining activity at 4 µM is 110% at HIPK2(h), 54% on Fms(h) and 124% on Pim-2(h).
